According to ChEMBL document CHEMBL1135899, “Design, synthesis, and evaluation of opioid analogues with non-peptidic beta-turn scaffold: enkephalin and endomorphin mimetics” (J Med Chem, 2002):

Experiments:
Opioid receptor = Opioid receptor (Rattus norvegicus, UniProt P33533+P34975+P33535); assay: Inhibition of [3H]-Naloxone binding to opioid receptor in rat cerebral cortex; type: tissue-based
[1] = molecular target: T1, Opioid receptor (Rattus norvegicus) (UniProt P33533+P34975+P33535); assay: Inhibition of [3H]naloxone binding to opioid receptor in rat cerebral cortex at 1 uM; type: tissue-based
[2] = molecular target: Kappa-type opioid receptor (Homo sapiens) (UniProt P41145); assay: Ability to displace [3H]-U 69593 from human Opioid receptor kappa 1 at 0.1 uM
[3] = molecular target: delta opioid receptor (Homo sapiens) (UniProt P41143); assay: Displacement of [3H]DPDPE from human delta opioid receptor at 0.1 uM
[4] = molecular target: Mu-type opioid receptor (Homo sapiens) (UniProt P35372); assay: Ability to displace [3H]DAMGO from human Opioid receptor mu 1 at 0.1 uM.
[5] = molecular target: T1, Opioid receptor (Rattus norvegicus); assay: Inhibition of [3H]naloxone binding to opioid receptor in rat cerebral cortex at 0.1 uM; type: tissue-based
[6] = molecular target: Mu-type opioid receptor (Homo sapiens) (UniProt P35372); assay: Ability to displace [3H]-DAMGO from human Opioid receptor mu 1 at 0.1 uM

T1 sequence (P33533 whole entry, looked up): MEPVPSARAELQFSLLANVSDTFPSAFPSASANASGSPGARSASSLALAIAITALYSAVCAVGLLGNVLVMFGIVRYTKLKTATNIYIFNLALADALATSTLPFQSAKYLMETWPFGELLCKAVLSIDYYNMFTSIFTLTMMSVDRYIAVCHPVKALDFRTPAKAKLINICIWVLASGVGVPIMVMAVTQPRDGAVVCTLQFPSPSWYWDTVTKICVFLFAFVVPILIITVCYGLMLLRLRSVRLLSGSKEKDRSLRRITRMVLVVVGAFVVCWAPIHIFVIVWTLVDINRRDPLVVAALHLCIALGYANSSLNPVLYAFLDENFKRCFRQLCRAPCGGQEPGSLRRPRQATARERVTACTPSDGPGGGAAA
T1 sequence (P33535 whole entry, looked up): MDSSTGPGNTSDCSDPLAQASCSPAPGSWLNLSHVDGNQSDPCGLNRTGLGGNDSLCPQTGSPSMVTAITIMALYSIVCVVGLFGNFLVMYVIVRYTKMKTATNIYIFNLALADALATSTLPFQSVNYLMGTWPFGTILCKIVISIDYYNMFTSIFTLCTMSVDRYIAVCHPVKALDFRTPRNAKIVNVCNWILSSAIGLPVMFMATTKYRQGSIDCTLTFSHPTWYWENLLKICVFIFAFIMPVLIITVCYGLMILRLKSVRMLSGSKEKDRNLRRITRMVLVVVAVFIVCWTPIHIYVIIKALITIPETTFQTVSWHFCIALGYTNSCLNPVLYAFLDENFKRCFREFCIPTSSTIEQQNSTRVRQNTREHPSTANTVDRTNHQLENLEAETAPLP
T1 sequence (P34975 whole entry, looked up): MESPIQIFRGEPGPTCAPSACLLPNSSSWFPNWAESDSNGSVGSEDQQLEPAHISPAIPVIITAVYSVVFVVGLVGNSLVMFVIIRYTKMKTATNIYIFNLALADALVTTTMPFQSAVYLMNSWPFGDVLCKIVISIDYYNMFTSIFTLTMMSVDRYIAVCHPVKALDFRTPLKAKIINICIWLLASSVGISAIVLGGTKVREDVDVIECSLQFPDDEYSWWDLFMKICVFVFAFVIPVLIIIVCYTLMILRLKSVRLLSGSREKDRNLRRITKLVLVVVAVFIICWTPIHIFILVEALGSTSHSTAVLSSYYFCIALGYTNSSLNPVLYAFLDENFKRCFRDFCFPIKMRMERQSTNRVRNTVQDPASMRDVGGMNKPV
Sequence of Mu-type opioid receptor (Homo sapiens) (P35372 whole entry): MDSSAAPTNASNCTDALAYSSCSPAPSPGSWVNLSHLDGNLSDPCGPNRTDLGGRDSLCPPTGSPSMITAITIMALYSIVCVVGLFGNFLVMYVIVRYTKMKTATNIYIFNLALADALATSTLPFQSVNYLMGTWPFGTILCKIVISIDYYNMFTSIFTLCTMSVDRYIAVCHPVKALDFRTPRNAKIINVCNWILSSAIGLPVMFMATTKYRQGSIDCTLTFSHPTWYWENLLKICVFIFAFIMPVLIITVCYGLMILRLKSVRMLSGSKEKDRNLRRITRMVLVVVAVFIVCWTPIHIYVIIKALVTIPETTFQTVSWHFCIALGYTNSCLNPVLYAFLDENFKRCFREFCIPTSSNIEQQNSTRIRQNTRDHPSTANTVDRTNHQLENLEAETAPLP
Sequence of delta opioid receptor (Homo sapiens) (P41143 whole entry, looked up): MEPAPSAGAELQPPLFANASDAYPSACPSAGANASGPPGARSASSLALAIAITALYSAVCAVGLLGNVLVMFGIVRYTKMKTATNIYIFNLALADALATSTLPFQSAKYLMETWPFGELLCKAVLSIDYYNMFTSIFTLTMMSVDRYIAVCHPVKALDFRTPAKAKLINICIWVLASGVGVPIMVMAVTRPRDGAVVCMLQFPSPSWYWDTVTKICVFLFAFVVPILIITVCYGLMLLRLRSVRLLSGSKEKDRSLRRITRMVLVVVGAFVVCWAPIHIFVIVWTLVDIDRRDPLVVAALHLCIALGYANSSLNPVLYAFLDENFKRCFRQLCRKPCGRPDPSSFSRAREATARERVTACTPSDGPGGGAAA
Sequence of Kappa-type opioid receptor (Homo sapiens) (P41145 whole entry): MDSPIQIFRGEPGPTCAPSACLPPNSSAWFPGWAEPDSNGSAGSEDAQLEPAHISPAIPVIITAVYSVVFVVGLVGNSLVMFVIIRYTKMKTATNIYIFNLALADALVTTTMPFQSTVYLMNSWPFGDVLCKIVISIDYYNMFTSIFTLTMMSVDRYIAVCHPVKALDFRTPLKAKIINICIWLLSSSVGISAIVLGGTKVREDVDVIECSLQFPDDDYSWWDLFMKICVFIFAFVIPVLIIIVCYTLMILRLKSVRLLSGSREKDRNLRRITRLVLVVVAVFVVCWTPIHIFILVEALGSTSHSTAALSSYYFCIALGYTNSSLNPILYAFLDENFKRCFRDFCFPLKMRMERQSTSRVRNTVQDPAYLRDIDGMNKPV

Row | Structure (SMILES) | IC50 (Opioid receptor) [nM] | inhibition [1] [%] | Selectivity [2] [%] | Selectivity [3] [%] | Selectivity [4] [%] | inhibition [5] [%] | Selectivity [6] [%]
1 | O=C1[C@H](Cc2ccccc2)N2C(=O)CCN(C(=O)OCCc3ccc(O)cc3)[C@H]2CN1CCc1ccccc1 | 80 | 96 |  |  |  |  | 
2 | CCCCCNC(=O)[C@H](CCc1ccccc1)NC(=O)CCNC(=O)OCCc1ccc(O)cc1 | > 1000 | < 10 |  |  |  |  | 
3 | O=C1[C@H](CCc2ccccc2)N2C(=O)CCN(C(=O)OCCc3ccc(O)cc3)[C@H]2CN1CCc1ccccc1 | 9 |  | < 10 | < 10 | 101 | 91 | 

Now from value to molecule:

Row | IC50 (Opioid receptor) [nM] | inhibition [1] [%] | Selectivity [2] [%] | Selectivity [3] [%] | Selectivity [4] [%] | inhibition [5] [%] | Selectivity [6] [%] | Structure (SMILES)
4 | 27 | 99 | < 10 | < 10 |  | 79 | 91 | CCCCCN1C[C@@H]2N(C(=O)OCCc3ccc(O)cc3)CCC(=O)N2[C@@H](CCc2ccccc2)C1=O
5 | 149 | 84 |  |  |  |  |  | CCCCCN1C[C@@H]2N(C(=O)OCCc3ccc(O)cc3)CCC(=O)N2[C@@H](Cc2ccccc2)C1=O
